Literature values in patent US20190279737A1, “METHOD OF DISCOVERING NEW DRUG CANDIDATE TARGETING DISORDER-TO-ORDER TRANSITION REGION AND APPARATUS FOR DISCOVERING NEW DRUG CANDIDATE” (INDUSTRY-UNIVERSITY COOPERATION FOUNDATION HANYANG …, priority 2016, published 2019).

Biological target: Myc (Homo sapiens, UniProt P01106)
Conditions: Follis et al. 2008

Myc, sequence (P01106 16-454, species assumed): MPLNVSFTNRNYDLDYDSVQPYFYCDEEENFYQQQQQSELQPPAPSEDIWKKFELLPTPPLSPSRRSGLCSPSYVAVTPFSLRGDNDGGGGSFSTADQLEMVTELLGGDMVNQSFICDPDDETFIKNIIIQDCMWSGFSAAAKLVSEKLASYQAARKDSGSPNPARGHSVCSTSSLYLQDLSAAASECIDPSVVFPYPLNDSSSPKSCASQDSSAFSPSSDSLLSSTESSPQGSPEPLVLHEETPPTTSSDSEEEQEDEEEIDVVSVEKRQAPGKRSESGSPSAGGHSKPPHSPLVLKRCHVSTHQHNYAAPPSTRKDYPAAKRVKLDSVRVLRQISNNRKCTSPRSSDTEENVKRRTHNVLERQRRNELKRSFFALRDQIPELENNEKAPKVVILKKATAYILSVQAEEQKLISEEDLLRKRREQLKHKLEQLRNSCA

CCc1ccc(/C=C2/SC(=S)NC2=O)cc1 [10058-F4]
region of Myc bound: specifically binds to a 402-412 region of Myc
